{
  "source": "patent US20090030034A1",
  "about": "“USE OF FGF INHIBITING SUBSTITUTED 1,2,3 INDOLIZINE DERIVATIVES IN THE PREPARATION OF MEDICAMENTS WHICH CAN BE USED TO TREAT DISEASES LINKED TO PATHOLOGICAL CHOROIDAL ANGIOGENESIS” (SANOFI-AVENTIS, priority 2004, published 2009)",
  "system": "laser-induced choroidal neovascularization",
  "experiment": "Laser induction of choroidal neovascularization in mice, oral treatment",
  "format": "in vivo, C57BI6 mice",
  "conditions": "30 mg/kg/day orally during the last 7 days, day 14 after induction",
  "experimental": "C57BI6 mice were used in these experiments. A model of laser-induced choroidal neovascularization (4 impacts per eye around the papilla) was applied to the animals as described by Tobe et al. Am. J. Pathol., 1998).\nOn day 14 after the induction and after monitoring by angiography, which makes it possible to estimate the percentage of lesions developing neovascularization, the animals are sacrificed and the eyeballs are enucleated for histological analysis. The mice are treated orally with one of the compounds of formula (I) during the last 7 days. The dose chosen for the monohydrate of the sodium salt of 2-amino-5-[(1-methoxy-2-methylindolizin-3-yl)carbonyl]benzoic acid is 30 mg/kg/day. The vehicle used is a 0.6% solution of methylcellulose in water.\nFour mice are used for the control group and six mice for the treated group.\nThe size of the neovascular reaction is estimated from frozen sections by morphometric evaluations of the thickness using a computerized image analysis system. […]\nEstimation is carried out by measuring the B/C ratio between, on the one hand, the EPR and the peak of the neovascular reaction (“B”), and, on the other hand, the thickness of the adjacent intact choroidal layer (“C”). This quantifying system was preferred to measuring surface areas of lesions as it is independent of the orientation of the histological sections.",
  "data": [
    {"smiles": "COc1c(C)c(C(=O)c2ccc(N)c(C(=O)O)c2)n2ccccc12", "note": "[2-amino-5-[(1-methoxy-2-methylindolizin-3-yl)carbonyl]benzoic acid]", "values": [
      {"measurement": "histological analysis and anti-CD31 immunohistochemistry of the laser impact sites", "value": "only a moderate thickening of the choriocapillary where the impacts occurred, without obvious sign of neovascularization"},
      {"measurement": "reduction of the laser-induced neovascular reaction, quantified by the B/C ratio, in comparison with the control mice", "setting": "frozen sections, morphometric thickness, p<0.001", "value": "~50", "unit": "%"}
    ]}
  ]
}
